Consider 17 compounds from ChEMBL document CHEMBL1129670, “Synthesis and structure-activity relationships of N-propyl-N-(4-pyridinyl)-1H-indol-1-amine (besipirdine) and related analogs as potential therapeutic agents for Alzheimer's disease” (J Med Chem, 1996).

For experiment [1], the species on record is Mus musculus. The experiment in a line: animal or person.
Description: Effective dose against administration in mice
The target of experiment [2] is Muscarinic acetylcholine receptor. Format: cell membranes, Membrane.
Description: Inhibition of [3H]quinuclidinyl benzilate (QNB) binding from rat forebrain membranes in the absence of Zn
For experiment [3] the target is unchanged. Format: cell membranes, Membrane. The source holds these as a separate data set.
Description: Inhibition of [3H]quinuclidinyl benzilate (QNB) binding from rat forebrain membranes in the presence of Zn
For experiment [4], the target named is Sodium-dependent noradrenaline transporter (Homo sapiens, UniProt P23975).
Description: Inhibitory activity against norepinephrine (NE) uptake in rat whole brain synaptosome preparation
In another experiment the target is T1, Acetylcholinesterase (Rattus norvegicus, UniProt P37136).
T1 sequence (P37136 whole entry): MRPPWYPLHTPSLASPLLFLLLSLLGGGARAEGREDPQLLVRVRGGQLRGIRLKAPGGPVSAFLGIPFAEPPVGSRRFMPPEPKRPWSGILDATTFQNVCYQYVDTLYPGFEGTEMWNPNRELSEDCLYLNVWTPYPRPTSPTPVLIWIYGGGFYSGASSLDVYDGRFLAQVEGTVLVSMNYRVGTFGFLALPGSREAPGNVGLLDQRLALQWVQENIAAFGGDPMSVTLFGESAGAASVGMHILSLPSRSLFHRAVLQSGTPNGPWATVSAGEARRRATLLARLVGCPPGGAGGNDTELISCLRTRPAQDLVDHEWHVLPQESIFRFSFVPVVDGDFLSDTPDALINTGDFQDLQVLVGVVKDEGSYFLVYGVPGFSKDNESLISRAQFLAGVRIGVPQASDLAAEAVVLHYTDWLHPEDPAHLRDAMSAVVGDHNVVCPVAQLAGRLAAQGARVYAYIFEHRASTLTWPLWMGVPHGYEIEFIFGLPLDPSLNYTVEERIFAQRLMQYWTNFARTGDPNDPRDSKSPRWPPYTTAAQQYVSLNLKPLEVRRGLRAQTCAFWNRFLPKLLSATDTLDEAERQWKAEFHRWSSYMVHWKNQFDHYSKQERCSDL

Experiment [5] concerns the target T2, Adrenergic receptor alpha-2 (Rattus norvegicus, UniProt P22086+P19328+P22909).
T2 sequence (P22086 whole entry): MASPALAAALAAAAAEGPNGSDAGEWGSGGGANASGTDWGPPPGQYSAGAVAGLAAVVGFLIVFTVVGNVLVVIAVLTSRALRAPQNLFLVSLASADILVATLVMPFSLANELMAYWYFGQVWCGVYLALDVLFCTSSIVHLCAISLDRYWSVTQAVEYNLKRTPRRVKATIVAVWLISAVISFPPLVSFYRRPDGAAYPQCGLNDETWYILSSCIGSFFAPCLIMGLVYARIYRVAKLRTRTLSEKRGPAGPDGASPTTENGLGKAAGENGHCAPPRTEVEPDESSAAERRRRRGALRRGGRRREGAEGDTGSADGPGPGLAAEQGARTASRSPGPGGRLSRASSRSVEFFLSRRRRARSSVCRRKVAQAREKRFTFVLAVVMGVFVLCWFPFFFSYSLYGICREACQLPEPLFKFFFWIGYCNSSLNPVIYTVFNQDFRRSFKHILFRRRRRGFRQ
T2 sequence (P19328 whole entry): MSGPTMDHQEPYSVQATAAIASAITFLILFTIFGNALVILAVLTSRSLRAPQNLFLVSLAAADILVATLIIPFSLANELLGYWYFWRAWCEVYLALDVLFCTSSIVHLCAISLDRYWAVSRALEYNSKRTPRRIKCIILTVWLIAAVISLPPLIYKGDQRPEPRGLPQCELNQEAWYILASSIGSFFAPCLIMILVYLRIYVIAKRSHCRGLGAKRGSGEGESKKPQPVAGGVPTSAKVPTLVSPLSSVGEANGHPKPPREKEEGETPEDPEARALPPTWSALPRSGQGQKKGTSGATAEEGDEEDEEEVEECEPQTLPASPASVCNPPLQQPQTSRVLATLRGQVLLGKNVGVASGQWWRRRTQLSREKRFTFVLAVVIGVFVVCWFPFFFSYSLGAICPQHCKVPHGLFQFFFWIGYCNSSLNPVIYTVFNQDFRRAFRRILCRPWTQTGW
T2 sequence (P22909 whole entry): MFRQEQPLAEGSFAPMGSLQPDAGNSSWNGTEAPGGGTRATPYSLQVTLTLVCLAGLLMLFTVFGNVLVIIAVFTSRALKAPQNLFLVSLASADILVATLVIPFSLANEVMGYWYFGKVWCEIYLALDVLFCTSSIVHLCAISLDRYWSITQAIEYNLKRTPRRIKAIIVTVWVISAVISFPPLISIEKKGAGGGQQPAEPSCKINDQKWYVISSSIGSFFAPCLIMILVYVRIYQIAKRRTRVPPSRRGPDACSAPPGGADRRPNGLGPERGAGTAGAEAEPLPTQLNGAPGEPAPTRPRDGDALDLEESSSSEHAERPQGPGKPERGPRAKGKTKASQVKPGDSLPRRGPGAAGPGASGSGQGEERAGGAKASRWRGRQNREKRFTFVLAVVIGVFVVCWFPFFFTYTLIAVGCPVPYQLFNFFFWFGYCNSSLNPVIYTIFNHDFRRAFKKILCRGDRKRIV
The experiment in a line: Inhibitory activity against [3H]clonidine binding to Alpha-2 adrenergic receptor in rat cortex.

Experiment [6] relates to Mus musculus. Nature of the experiment: Antagonistic activity against Scopolamine induced behavioral deficits in mice at dose 0.02 mg/kg sc. Format: functional. The settings on record: route subcutaneous.
The species entered for experiment [7] is Mus musculus. Nature of the experiment: Antagonistic activity against Scopolamine induced behavioral deficits in mice; 3/9. Format: functional.
The species entered for experiment [8] is Mus musculus. The conditions noted are these: dose 2.5 mg/kg; route subcutaneous.
Description: Antagonistic activity against Scopolamine induced behavioral deficits in mice at dose 2.5 mg/kg sc
For experiment [9], the species on record is Mus musculus. The settings on record: dose 5 mg/kg; route subcutaneous.
Description: Antagonistic activity against Scopolamine induced behavioral deficits in mice at dose 5.0 mg/kg sc
Experiment [10] is filed under the species Mus musculus.
Experiment [11] deals with Mus musculus. The experiment in a line: Antagonistic activity against Scopolamine induced behavioral deficits in mice at dose 1.25 mg/kg sc. Format: functional. The settings on record: route subcutaneous.
The species named for experiment [12] is Mus musculus. Nature of the experiment: Antagonistic activity against Scopolamine induced behavioral deficits in mice; 1/6. Format: functional.
For experiment [13], the system named is Mus musculus. Nature of the experiment: Antagonistic activity against Scopolamine induced behavioral deficits in mice at dose […] sc. Type of experiment: functional. The conditions noted are these: route subcutaneous.

Chain of Sodium-dependent noradrenaline transporter (P23975 whole entry): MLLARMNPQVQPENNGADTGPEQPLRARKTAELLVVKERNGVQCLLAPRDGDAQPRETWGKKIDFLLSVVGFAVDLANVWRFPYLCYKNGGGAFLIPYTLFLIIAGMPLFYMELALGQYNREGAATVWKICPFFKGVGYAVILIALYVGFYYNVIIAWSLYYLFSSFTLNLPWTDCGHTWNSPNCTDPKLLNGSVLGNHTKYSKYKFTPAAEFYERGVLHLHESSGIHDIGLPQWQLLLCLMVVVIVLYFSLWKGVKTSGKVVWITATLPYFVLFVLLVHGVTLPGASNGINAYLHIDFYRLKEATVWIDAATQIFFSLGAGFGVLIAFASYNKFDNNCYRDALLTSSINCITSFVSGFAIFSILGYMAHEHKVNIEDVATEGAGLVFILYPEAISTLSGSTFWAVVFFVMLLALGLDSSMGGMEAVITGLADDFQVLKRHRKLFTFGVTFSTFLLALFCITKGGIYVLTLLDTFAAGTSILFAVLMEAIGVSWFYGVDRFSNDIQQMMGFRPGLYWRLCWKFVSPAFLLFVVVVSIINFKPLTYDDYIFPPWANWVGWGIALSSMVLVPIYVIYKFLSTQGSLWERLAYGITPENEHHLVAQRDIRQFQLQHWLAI
Description for Acetylcholinesterase: Inhibitory activity against acetylcholinesterase in rat striatal preparation

Take `Brc1ccc2c(ccn2Nc2ccncc2)c1`: the 50% effective dose (ED50) (in general, the midpoint of the dose-response relation) in the experiment listed under Mus musculus [1] is more than 20 mg/kg. Moreover, the concentration for half-maximal inhibition (IC50) – broadly, the concentration at which inhibition is half-maximal – is 44 µM in [2], 7.5 µM in [3], more than 20 µM in experiment [4] and more than 100 µM against Acetylcholinesterase.

In turn, `O=C(O)/C=C/C(=O)O.c1cnn(Nc2ccncc2)c1` displayed a median effective dose (ED50) in the experiment listed under Mus musculus [1] of more than 20 mg/kg. In addition, the half-inhibitory concentration (IC50) in experiment [2] is more than 1000 µM; in experiment [3], 247 µM; in [4] it was more than 20 µM; on Acetylcholinesterase, more than 100 µM.

On to `CCCN(c1ccncc1)n1c(C)cc2ccccc21`, for which the 50% inhibitory concentration (IC50) in experiment [5] was 2.3 µM; in [2], 7.2 µM; in [3], 1.4 µM; in [4] it was 1.1 µM; against Acetylcholinesterase it was more than 100 µM. The Response turned out to be 20% in the experiment with Mus musculus [6], 20% in the experiment listed under Mus musculus [8] and 23% in the experiment listed under Mus musculus [9]. For the same compound, the ED50 in the experiment listed under Mus musculus [1] was determined as 3.2 mg/kg. In the experiment filed under Mus musculus [7], this compound returned an Antagonism of 3.

In the experiment filed under Mus musculus [1], `O=C(O)/C=C/C(=O)O.c1ccc2c(c1)cnn2Nc1ccncc1` registered an ED50 of 3.8 mg/kg. The IC50 was 128 µM in [2], 29 µM in experiment [3], 17 µM in experiment [4] and more than 100 µM against Acetylcholinesterase. The same compound returned an Antagonism in the experiment filed under Mus musculus [10] of 0.

Take `CCCN(c1ccncc1)n1ccc2cc(Cl)ccc21`: the ED50 in the experiment filed under Mus musculus [1] was more than 20 mg/kg. The half-inhibitory concentration (IC50) in [2] was 5.8 µM; in experiment [3], 2.4 µM; in [4] it was 1.9 µM; against Acetylcholinesterase, more than 100 µM. For the same compound, the Response in the experiment on Mus musculus [11] was 20%. Also, the Antagonism in the experiment listed under Mus musculus [12] was 1.

In the case of `CCCN(c1ccncc1)n1cc(C=O)c2ccccc21`, the ED50 in the experiment filed under Mus musculus [1] stood at 18 mg/kg. Also, the 50% inhibitory concentration (IC50) in [2] turned out to be 3.3 µM; in experiment [3] it was 1.8 µM; in experiment [4] it was 2.2 µM; at Acetylcholinesterase, 20 µM. The Antagonism in the experiment filed under Mus musculus [10] is 0.

In the case of `CCCN(c1ccncc1)n1cccn1.O=C(O)/C=C/C(=O)O`, the ED50 in the experiment filed under Mus musculus [1] is more than 20 mg/kg. In addition, the half-inhibitory concentration (IC50) in experiment [2] is 127 µM; in experiment [3], 31 µM; in experiment [4], more than 20 µM; on Acetylcholinesterase, more than 100 µM.

In the experiment filed under Mus musculus [1], `CCCN(c1ccncc1)n1cc2ccccc2n1` had a median effective dose (ED50) of more than 20 mg/kg. Also, the IC50 is 91 µM in experiment [2], 15 µM in [3], 4.7 µM in [4] and more than 100 µM at Acetylcholinesterase.

As to `O=C(O)/C=C/C(=O)O.c1ccc2c(c1)c1ccccc1n2Nc1ccncc1`, the 50% effective dose (ED50) in the experiment listed under Mus musculus [1] worked out at 2.3 mg/kg. The IC50 was 20 µM in experiment [2], 8.2 µM in [3], 1.4 µM in experiment [4] and more than 100 µM on Acetylcholinesterase. The same compound came in with an Antagonism in the experiment listed under Mus musculus [10] of 0.

Consider `C=CCN(c1ccncc1)n1ccc2ccccc21`, for which the ED50 in the experiment filed under Mus musculus [1] was 4.2 mg/kg. In addition, the concentration for half-maximal inhibition (IC50) in experiment [2] is 7.3 µM; in [3], 1 µM; in experiment [4], 6.2 µM; at Acetylcholinesterase, more than 100 µM. In the experiment listed under Mus musculus [10], this compound displayed an Antagonism of 0.

Compound `c1ccc2nn(Nc3ccncc3)cc2c1` had an ED50 in the experiment listed under Mus musculus [1] of more than 20 mg/kg. Also, the IC50 was 409 µM in [2], 128 µM in experiment [3], more than 20 µM in experiment [4] and more than 100 µM against Acetylcholinesterase.

For the compound `COc1ccc2c(ccn2Nc2ccncc2)c1`, the 50% effective dose (ED50) in the experiment filed under Mus musculus [1] is more than 20 mg/kg. Further, the IC50 in [2] is 44 µM; in experiment [3], 7.5 µM; in experiment [4] it was more than 20 µM; on Acetylcholinesterase it was more than 100 µM.

`Cc1cn(Nc2ccncc2)c2ccccc12`: the 50% effect level in the experiment listed under Mus musculus [1] (ED50) was put at a dose of 1 mg/kg. Moreover, the IC50 in [2] was 82 µM; in experiment [3] it was 35 µM; in [4], 12.8 µM; against Acetylcholinesterase, more than 100 µM. The Response in the experiment with Mus musculus [13] is 33%. The Antagonism in the experiment listed under Mus musculus [12] amounted to 1.

In the experiment listed under Mus musculus [1], `O=[N+]([O-])c1ccc2c(ccn2Nc2ccncc2)c1` displayed a 50% effective dose (ED50) of more than 20 mg/kg. Moreover, the IC50 was 146 µM in experiment [2], 12 µM in experiment [3], 9.9 µM in [4] and more than 100 µM at Acetylcholinesterase.

`Clc1cccc(Cl)c1NC1=NCCN1` [CLONIDINE] gave an ED50 in the experiment listed under Mus musculus [1] of 0.36 mg/kg. Besides, in experiment [4], the half-inhibitory concentration (IC50) was more than 20 µM. In addition, the Antagonism in the experiment listed under Mus musculus [10] was determined as 0.

For `O=C1CCCN1CC#CCN1CCCC1` [OXOTREMORINE], the IC50 amounted to 2.7 µM in experiment [2] and 0.66 µM in [3].

In the case of `COC(=O)[C@@H]1[C@H]2C[C@H]3c4[nH]c5ccccc5c4CCN3C[C@@H]2CC[C@@H]1O` [YOHIMBINE], the ED50 in the experiment filed under Mus musculus [1] is more than 8 mg/kg.
